Experimental data taken from patent US8470352B2, “Magnesium compositions and uses thereof for metabolic disorders” (Magceutics, Inc., priority 2007, dated 2013).

Key:
[1] = Magnesium absorption rate in rats (urine and feces magnesium by ICP-AES, linear regression); details: Examples 5 and 6, gluconate in skim milk or 5 weight percent lactose water, chloride and threonate in water; for magnesium absorption rate at higher dosage: high magnesium dosage
Experimental: Fifty 3-month old, male Sprague Dawley (SD) rats were divided into five groups of ten rats. Rats of this age and older are considered adult. Each of the rats was placed in a separate metabolic cage equipped with urine- and feces-collecting wells. All of the rats were maintained in a temperature-controlled room (22° C. to 25° C.) with a dark period from 08:00 pm to 08:00 am daily. From day 1 through day 3, each rat was fed daily 15 g of magnesium-free food and de-ionized water. […] The medium was skim milk for Composition 1 and Group 1, milk prepared from powdered milk, by diluting the powdered milk with water to obtain a composition like that of skim milk, for Composition 2 and Group 2, 1% milk cream in water for Composition 3 and Group 3, water comprising 5 weight percent lactose for Composition 4 and Group 4, and water for the Control Composition and Control Group. […] From day 11 through day 12, each rat was fed daily 15 g of magnesium-free food and de-ionized water.
From day 4 through day 10, urine from each rat was collected daily. The collected urine from each rat was then pooled together and the total volume of the pooled urine from each rat was recorded. The pooled urine from each rat, in an amount of […], was analyzed for magnesium content using an inductively coupled plasma-atomic emission spectrometer (ICP-AES). From day 5 to day 11, feces from each rat were collected daily. The collected feces from each rat were pooled together and the pooled feces were weighed and homogenized. The pooled feces from each rat, in an amount of 0.5 g, were analyzed for magnesium content using an ICP-AES.
A formula was used to calculate a magnesium absorption rate for each rat. The formula used was Y=AX−B, wherein X was the average total daily magnesium intake, Y was the average net daily amount of magnesium absorbed, as calculated by X minus the average daily amount of magnesium excreted from feces, B was the average daily amount of magnesium excreted from feces when the magnesium intake was zero, and the slope A represented the magnesium absorption rate. […]

[2] = system: rats (young, aging, aged); details: p<0.05
Experimental: Twenty 2-month old, male Sprague Dawley (SD) rats were housed in a temperature-controlled room (22° C. to 25° C.) with a dark period from 08:00 pm to 08:00 am daily. […] Over 7 days before the training and trial period began, each rat was handled and habituated to the maze and to Kellogg's Froot Loop cereal.
Each rat underwent a test of one trial, followed by an interval of 10-minutes, followed by another trial, and so on, for a total of 6 trials in one day. In each trial, each rat went through a sample run in the maze, followed by an interval of 15 seconds, followed by a choice run in the maze. […]
On the first day (designated day 0) of the feeding of the two groups, as just described, each rat underwent a preliminary test of one trial, followed by an interval of 10 minutes, followed by another trial, and so on, for a total of 4 trials in one day. […] In this preliminary test, the choice accuracy level, or ratio of correct choices made, co, to the number of number of trials in the test, no, was determined for each rat. […]
Three groups of animals (young, aging, and magnesium-treated aging rats) were used. […] Spatial working memory was assessed using a T-maze non-matching-to-place task. […] Spatial working memory was first assessed on an elevated T-maze. […]

[3] = system: rats (young, aging); experiment: Novel object recognition test in rats; type: in vivo, Sprague-Dawley rats
Experimental: In this example, the effect of magnesium supplementation on recognition memory was tested. Three groups of rats were used in these experiments: 1) young rats (three months old); aging rats (12-14 months old), and; 3) magnesium-treated aging rats (12-14 months old, diet supplemented with 6 mg/kg MgCl2 from 8 months of age). We used experimentally naive, female, Sprague-Dawley young […], aging (12-14 month old) and […] rats (Charles River) at the beginning of the behavior experiments. They were housed two per cage with continuous access to food and water under a 12:12 light-dark cycle, with light onset at 8:00 a.m. […] All experiments involving animals were approved by the Massachusetts Institute of Technology's and Tsinghua University Committees on Animal Care.
The three groups of rats were tested for recognition memory using an object recognition test with a single exposure to the object during training. The task is based on the natural tendency of rodents to explore new objects and tests the animals' memory capacity for distinguishing novel versus familiar objects.
Briefly, the rats were first individually habituated to the personnel and then to open-field arena during 2 weeks. […] The retention intervals were 10 min and 24 hours. Objects were cleaned thoroughly between trials with 20% ethanol solution to ensure the absence of olfactory cues. The particular objects for a given trial were randomly determined, but each object was used for only one trial per rat. Memory of the familiar object is associated with increased exploration of the new object and an exploration index (% correct) is calculated as new object inspection time/30.
In this example, the effect of magnesium supplementation on memory consolidation was studied. […]
Briefly, the rats were first individually habituated to the personnel and then to open-field arena during 2 weeks. […] The particular objects for a given trial were randomly determined, but each object was used for only one trial per rat. […]

[4] = system: diabetic patients; details: nearly 1 g of magnesium daily for 1 month; cited from earlier work
[5] = system: young (9-month old) and aged (25-month old) rats; details: food containing 2% magnesium oxide for 8 days; gain transient; cited from earlier work
[6] = in vivo; cited from earlier work
[7] = system: mice genetically altered to present symptoms of Alzheimer's disease (AD); experiment: Modified Morris water maze test in AD mice; type: in vivo; details: AD mice aged 13 months; FIG. 16 panels A and B
Experimental: Another group, the control group, of 10 mice that were genetically altered to present symptoms of AD were fed a Control Diet, a diet of normal solid food and water, for 30 days.
The pool used was a pool of water in a circular metal tank (150 cm in diameter and 50 cm in depth) having a water height of 30 cm and a water temperature that was maintained at ˜22° C. The pool was placed in a moderately lit area and surrounded by a black curtain. An acrylic platform (15 cm in diameter) was placed 2 cm below the surface of the water in the middle of one quadrant of the pool, equidistant from the center and the edge of the pool. Outside the pool, a cue was placed so as to be visible to a mouse in the maze, allowing a mouse to use it as a landmark for spatial orientation. The cue remained unchanged throughout the test period.
On the first day of the training and testing period, the water in the pool was transparent, such that the platform was visible. Each mouse was trained to swim towards the platform and to stand on the platform so as not to be submerged in the pool. […] The amount of time the mouse took to find the platform, referred to as “escape latency,” was recorded for each trial.
On the second day of the training and testing period, a small quantity of milk was added to the water in the pool, such that the pool was opaque and the platform was no longer visible. […]

[Cl-].[Cl-].[Mg+2] [magnesium chloride]
magnesium absorption rate at higher dosage [1]: less desirable | magnesium absorption rate at relatively low dosage ([1]; low magnesium dosage): suitable, but lower | learning in T-maze non-matching-to-place task, 15 sec delay ([2]; 6 mg/kg MgCl2, FIG. 10 left panel): performed significantly better from their first trials | spatial working memory at 2 and 5 min delays ([2]; 6 mg/kg MgCl2, FIG. 10 right panel): significantly enhanced the performance of the aging rats | novel object exploration preference, 10 minute retention interval ([3]; aging rats (12-14 months old), diet supplemented with 6 mg/kg MgCl2 from 8 months of age, single training, FIG. 8, P<0.0001): preferentially explored the novel object to the same extent as young rats | novel object discrimination after 24 hours ([3]; aging rats, 6 mg/kg MgCl2, single training): lose there ability to distinguish novel versus familiar objects | preference for the novel object, 24-hour retention interval after spaced training ([3]; aging rats, 6 mg/kg MgCl2, two training sessions, FIG. 9): retained a high level of preference

[O]=[Mg] [magnesium oxide]
metabolic control [4]: only minor improvement | cognitive function [5]: some sign of improvement | magnesium bioavailability, or absorption rate in the human body [6]: very low

CC12CC3CC(C)(C1)CC(N)(C3)C2 [memantine]
reduction of the effects of AD on learning capacity, comparison of anti-AD drugs [7]: better at reducing the effects of AD on learning capacity than aricept

magnesium gluconate
magnesium absorption rate at higher dosage [1]: suitably close to those associated with the lower dosage compositions
